The results in this text go back to US10485803B2, “Pyrimidine compounds as JAK kinase inhibitors” (THERAVANCE BIOPHARMA R&D IP, LLC, priority 2016, dated 2019).

Entries after “also recorded” stand apart in the source; their conditions may differ. Like-named read-outs stand apart in the source and are kept apart here.

Data set [1] relates to IL-13 induced STAT6 phosphorylation in HT-29 human colorectal adenocarcinoma cells. As to the kind of experiment: Cellular JAK potency assay: inhibition of IL-13. To be noted: HT-29 cells. It is filed as cell-based. How it is done: The potency of test compounds for inhibition of the JAK-dependent cytokine interleuken-13 (IL-13) was assessed by measuring IL-13 (IL-13, R&D Systems) induced STAT6 phosphorylation in HT-29 human colorectal adenocarcinoma cells (ATCC).
The anti-STAT6 antibody (Cell Signaling Technologies) was conjugated to AlphaScreen acceptor beads (Perkin Elmer), while the anti-pSTAT6 (pTyr641) antibody (Cell Signaling Technologies) was biotinylated using EZ-Link Sulfo-NHS-Biotin (Thermo Scientific).
HT-29 cells were grown at 37° C. in a 5% CO2 humidified incubator in McCoy's 5a Modified medium (ATCC) supplemented with 10% FBS (Hyclone), 100 U/mL penicillin, 100 μg/mL streptomycin (Life Technologies), and 2 mM GlutaMAX (Life Technologies). On day 1 of the assay, cells were seeded at a 7,500 cells/well density in white poly-D-lysine-coated 384-well plates (Corning) with 25 μL medium, and were allowed to adhere overnight in the incubator. On day 2 of the assay, the medium was removed and replaced with 12 μL of assay buffer (Hank's Balanced Salt Solution/HBSS, 25 mM HEPES, and 1 mg/ml bovine serum albumin/BSA) containing dose-responses of test compounds. Compounds were serially diluted in DMSO and then diluted another 1000-fold in media to bring the final DMSO concentration to 0.1%. Cells were incubated with test compounds at 37° C. for 1 h, and followed by the addition of 12 μl of pre-warmed IL-13 (12 ng/ml in assay buffer) for stimulation. After incubating at 37° C. for 30 min, the assay buffer (containing compound and IL-13) was removed, and 10 μl of cell lysis buffer (25 mM HEPES, 0.1% SDS, 1% NP-40, 5 mM MgCl2, 1.3 mM EDTA, 1 mM EGTA, and supplement with Complete Ultra mini protease inhibitors and PhosSTOP from Roche Diagnostics). The plates were shaken at ambient temperature for 30 min before the addition of detection reagents. A mixture of biotin-anti-pSTAT6 and anti-STAT6 conjugated acceptor beads was added first and incubated at ambient temperature for 2 h, followed by the addition of streptavidin conjugated donor beads (Perkin Elmer). After a minimum of 2 h incubation, the assay plates were read on the EnVision plate reader.
Results were expressed as the negative logarithm of the IC50 value, pIC50.

The nature of data set [2]: Determination of absorption in cannulated rats. It is filed as in vivo, Sprague Dawley rats. To be noted: rat, oral vs IV dose. How it is done:
Oral bioavailability (F %), fraction absorbed (Fa%) and fraction escaping hepatic clearance (Fh%) were determined in Sprague Dawley rats from the following two studies:
(1) Pharmacokinetics in rats following an IV dose of test compound: Following IV dosing, plasma samples were typically collected from 0-6 hr. Drug levels were determined using an LC-MS-MS method. The resulting drug levels were used to compute the IV pharmacokinetic parameters: AUC IV and Dose IV.
(2) Rats that have been cannulated in their portal vein (PV) and also in their jugular vein (JV) were dosed orally with test compound. Following oral dosing, plasma samples were typically collected from 0-6 hr from both the portal vein and the jugular vein. Drug levels were determined using an LC-MS-MS method. The resulting drug levels were used to compute the following pharmacokinetic parameters: AUC PO PV, AUC PO JV, and Dose PO.
Using data derived from the above studies, the oral bioavailability F %, and the quantities Fa% and Fh% were calculated from the following formulas: F%=(AUC PO JV/AUC IV)*(Dose IV/Dose PO)*100 Fa%=(AUC PO PV/AUC IV)*(Dose IV/Dose PO)*100 Fh%=AUC PO JV/AUC PO PV • where: • AUC PO JV=Area under the curve following oral dose and plasma collected from the jugular vein • AUC PO PV=Area under the curve following oral dose and plasma collected from the portal vein • AUC IV=Area under the curve following an intravenous dose • Dose IV=Intravenous Dose in mg/kg • Dose PO=Oral Dose in mg/kg

The subject of data set [3] is oxazolone-induced colitis. Briefly: Mouse model of oxazolone-induced colitis. The data set is classed as in vivo, BALB/C mice. To be noted: mice, PO, 1, 3, and/or 10 mg/kg BID. Here is the method:
Oxazolone-induced colitis is an experimental model that has a histological resemblance to human ulcerative colitis (Heller et al. […], 2002, 17, 629-638). Adult BALB/C mice from Harlan were used in the assay. On day 1, animals were lightly anesthetized with isoflurane and the hairs between the shoulder were carefully removed before oxazolone (4%, 150 μL, 4:1 acetone: olive oil formulation) or vehicle solution was slowly applied for skin sensitization. Seven days after skin sensitization, the mice were fasted overnight, anesthetized with isoflurane inhalation, and a 1 mL syringe equipped with a 3.5-F catheter, filled with oxazolone solution, was inserted carefully about 4 cm into the colon of the mouse. Following insertion, 50 μL of the oxazolone solution (1%, 1:1 ethanol:water formulation) was injected very slowly (over 30 sec using an injection pump) into the colon. The catheter was removed and the mice were held vertically (head down) for 2 min to ensure that the entire oxazolone solution remained inside the colon. Drug treatment (PO, BID or TID) or vehicle was initiated a day prior to the oxazolone intrarectal (IR) challenge. Two-day post oxazolone intrarectal challenge, the Disease Activity Index (DAI) was assessed by treatment-blinded experimenters for each mouse according to the criteria score: stool consistency score (0, normal; 2, loose; 4, diarrhea), gross bleeding score (0, absence; 2, blood tinged; 4, presence), and weight loss score (0, none; 1, 1%-5%; 2, 5%-10%; 3, 10%-20%; 4, more than 20%); DAI=average of (stool consistency score+gross bleeding score+weight loss score).

The target of a further data set is JAK1 (Homo sapiens (Human), UniProt P23458). As to the kind of experiment: LanthaScreen JAK biochemical assay, JAK1. (Time-resolved FRET reads energy transfer from a long-lived donor to a nearby acceptor.)
JAK1, sequence (P23458 whole entry): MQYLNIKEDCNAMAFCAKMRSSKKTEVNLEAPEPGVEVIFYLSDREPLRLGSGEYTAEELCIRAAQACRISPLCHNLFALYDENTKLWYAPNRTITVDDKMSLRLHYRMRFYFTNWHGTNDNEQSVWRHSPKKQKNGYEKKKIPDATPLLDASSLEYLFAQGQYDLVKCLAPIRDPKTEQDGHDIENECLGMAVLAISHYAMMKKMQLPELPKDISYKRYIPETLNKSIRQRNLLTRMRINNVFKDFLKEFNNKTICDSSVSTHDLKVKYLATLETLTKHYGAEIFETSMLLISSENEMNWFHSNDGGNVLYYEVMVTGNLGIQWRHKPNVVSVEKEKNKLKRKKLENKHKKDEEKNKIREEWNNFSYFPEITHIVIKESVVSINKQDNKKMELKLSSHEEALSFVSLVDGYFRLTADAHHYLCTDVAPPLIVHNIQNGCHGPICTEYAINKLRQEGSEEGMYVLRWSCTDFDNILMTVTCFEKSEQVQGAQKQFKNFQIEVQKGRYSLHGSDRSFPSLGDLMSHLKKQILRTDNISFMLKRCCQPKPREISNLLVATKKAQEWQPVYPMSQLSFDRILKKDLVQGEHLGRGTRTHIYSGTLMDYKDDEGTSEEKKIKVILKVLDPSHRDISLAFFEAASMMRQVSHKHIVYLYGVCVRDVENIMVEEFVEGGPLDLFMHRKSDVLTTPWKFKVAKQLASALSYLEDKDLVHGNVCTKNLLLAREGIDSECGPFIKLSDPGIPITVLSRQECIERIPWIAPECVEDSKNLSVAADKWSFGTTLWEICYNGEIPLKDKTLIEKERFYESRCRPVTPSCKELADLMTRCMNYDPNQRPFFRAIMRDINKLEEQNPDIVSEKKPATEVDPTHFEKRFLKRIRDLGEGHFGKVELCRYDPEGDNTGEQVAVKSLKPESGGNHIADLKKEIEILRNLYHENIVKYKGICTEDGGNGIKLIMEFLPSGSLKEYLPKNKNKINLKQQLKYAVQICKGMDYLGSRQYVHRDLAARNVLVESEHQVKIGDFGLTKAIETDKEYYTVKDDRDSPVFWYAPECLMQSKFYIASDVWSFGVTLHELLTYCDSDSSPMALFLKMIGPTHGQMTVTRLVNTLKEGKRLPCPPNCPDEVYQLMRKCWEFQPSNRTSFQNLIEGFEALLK
The next data set addresses JAK2 (Homo sapiens (Human), UniProt O60674). Briefly: LanthaScreen JAK biochemical assay, JAK2.
The next data set deals with JAK3 (Homo sapiens (Human), UniProt P52333). Briefly: LanthaScreen JAK biochemical assay, JAK3.
JAK3, sequence (P52333 whole entry): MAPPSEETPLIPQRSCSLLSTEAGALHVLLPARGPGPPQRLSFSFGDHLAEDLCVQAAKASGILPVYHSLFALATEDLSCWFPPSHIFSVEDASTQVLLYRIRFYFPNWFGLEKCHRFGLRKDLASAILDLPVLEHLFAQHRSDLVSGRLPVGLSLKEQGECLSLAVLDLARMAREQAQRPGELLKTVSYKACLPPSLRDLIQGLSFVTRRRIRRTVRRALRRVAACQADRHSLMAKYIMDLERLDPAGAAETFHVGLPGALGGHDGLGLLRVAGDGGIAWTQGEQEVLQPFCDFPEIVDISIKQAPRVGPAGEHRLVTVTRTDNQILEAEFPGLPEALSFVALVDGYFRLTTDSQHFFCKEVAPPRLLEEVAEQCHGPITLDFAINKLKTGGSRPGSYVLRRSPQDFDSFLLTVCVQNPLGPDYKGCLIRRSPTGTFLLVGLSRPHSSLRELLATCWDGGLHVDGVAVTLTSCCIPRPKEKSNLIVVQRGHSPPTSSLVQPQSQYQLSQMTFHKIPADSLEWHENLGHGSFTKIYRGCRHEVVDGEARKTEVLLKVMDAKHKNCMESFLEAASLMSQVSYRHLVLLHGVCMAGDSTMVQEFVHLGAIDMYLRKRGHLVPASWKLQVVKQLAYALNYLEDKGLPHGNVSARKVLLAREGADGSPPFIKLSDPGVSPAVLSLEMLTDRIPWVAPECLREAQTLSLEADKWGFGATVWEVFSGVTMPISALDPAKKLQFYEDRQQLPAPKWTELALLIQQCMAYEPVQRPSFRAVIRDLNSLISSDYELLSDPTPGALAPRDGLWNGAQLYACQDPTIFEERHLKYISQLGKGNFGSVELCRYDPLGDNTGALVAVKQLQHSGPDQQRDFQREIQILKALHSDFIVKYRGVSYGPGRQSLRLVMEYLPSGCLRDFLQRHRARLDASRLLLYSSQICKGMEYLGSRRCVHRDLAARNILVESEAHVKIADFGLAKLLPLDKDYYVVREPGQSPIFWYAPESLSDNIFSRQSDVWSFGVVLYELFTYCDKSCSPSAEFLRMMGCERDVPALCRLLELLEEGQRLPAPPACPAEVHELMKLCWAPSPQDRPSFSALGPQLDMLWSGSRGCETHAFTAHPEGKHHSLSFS
Another data set addresses Tyk2 (Homo sapiens (Human), UniProt P29597). As to the kind of experiment: LanthaScreen JAK biochemical assay, Tyk2.
The nature of data set [4]: Colon pharmacokinetics in rats. The data set is classed as in vivo, Sprague Dawley rats. To be noted: rat, upon oral administration, dose not stated.
In data set [5] the test system is mouse splenic NK, B and T cells. As to conditions: in vivo; for treatment effect on B and T cell populations: po. How it is done:
Depletion of mouse splenic cells is an experimental model of immunosuppression (Kudlacz et al., Am. J. of Transplantation, 2004, 4, 51-57). The compound of Example 2 was assessed in the mouse splenic cell model following the same treatment paradigm as that used in the oxazolone-induced colitis model (Assay 8).
The compound (1, 10 and 100 mg/kg, BID) and tofacitinib (30 and 60 mg/kg, BID) as a positive control were dosed orally for three days to naïve mice. Spleens were harvested 1 h post last dose and crushed immediately for cell subtype staining. Prior to fixation, fluorophore-labelled antibodies for CD19 (FITC; B cells), CD3e (PE; pan T cells) and DX5 (APC; NK cells) were incubated with splenocyte samples from each animal to allow for simultaneous, multiple subtype % analysis on the flow cytometer. The number of total spleen cells for each animal was measured by Scepter™ 2.0 Handheld Automated Cell Counter.
The absolute number of lymphocyte subtype population (e.g., splenic B, T and NK cells) was calculated from the percentage of each subtype times total spleen cells for each animal. A one way ANOVA, with Dunnett's post hoc test, was used to compare the splenic lymphocytes number of the vehicle and test compound groups. The a level was set at p<0.05. Data were presented as the mean±SEM for each group.

For data set [6] the following is noted: in vivo. From the text: The objective of this assay was to determine the epidermal, dermal and plasma pharmacokinetics of a test compound following a 24 hr exposure to intact mouse or mini-pig skin.
Twenty-four hours prior to dosing the hair was shaved from the back of 25 g male Balb/c mice exposing an area at of least 6 cm^2 (about 10% of body surface) and, in a separate experiment, of 10 kg Gottingen mini-pigs exposing an area of at least 450 cm^2 (about 10% of body surface). […] The skin was covered with an adhesive cover to prevent loss of compound to the cage or bedding.
Following 24 h exposure, the backs were gently washed with soap and water to remove non-absorbed drug and patted dry. Immediately following this washing, blood was drawn by cardiac puncture from the mice and via venipuncture from the mini-pigs. The outer skin (stratum corneum) was then removed by adhesive tape stripping. Upon exposure of the epidermis a 0.5 cm punch biopsy was taken. The epidermis and dermis were quickly separated, weighed and snap frozen.

The test system of data set [7] is TPA-induced increase in ear thickness. Briefly: Topical TPA-induced irritant contact dermatitis model in mice. It is filed as in vivo, Balb/c mice. To be noted: 6 hours after TPA. Here is the method:
The objective of this assay is to assess the anti-inflammatory effect in a model of acute dermatitis of test compounds being studied for cutaneous inflammatory conditions such as atopic dermatitis (Dong et al., J Pharmacol Exp Ther, 2013, 344, 436-446).
Topical dermal application of phorbol ester 12-O-tetradecanoylphorbol-13-acetate (TPA) in mice causes an inflammatory response that is characterized by edema and neutrophil influx at the early phase (2-24 h) and by epidermal cell proliferation at the later phase (24-48 h) (Griffiths et al., Agents and Actions, 1988, 25, 344-351). Female Balb/c mice were topically administered with either vehicle (1:7 DMSO:acetone) or 20 μL of a solution of TPA (2.5 μg) in vehicle on each ear. At 30 min before and 15 min after TPA administration, either vehicle or the compound of Example 2 at doses of 30, 100, 300, 1000, and 3000 μg in vehicle was applied topically to each ear. The degree of inflammation was assessed as the change in ear thickness at 6 hours after TPA application.

Tyk2, sequence (P29597 whole entry): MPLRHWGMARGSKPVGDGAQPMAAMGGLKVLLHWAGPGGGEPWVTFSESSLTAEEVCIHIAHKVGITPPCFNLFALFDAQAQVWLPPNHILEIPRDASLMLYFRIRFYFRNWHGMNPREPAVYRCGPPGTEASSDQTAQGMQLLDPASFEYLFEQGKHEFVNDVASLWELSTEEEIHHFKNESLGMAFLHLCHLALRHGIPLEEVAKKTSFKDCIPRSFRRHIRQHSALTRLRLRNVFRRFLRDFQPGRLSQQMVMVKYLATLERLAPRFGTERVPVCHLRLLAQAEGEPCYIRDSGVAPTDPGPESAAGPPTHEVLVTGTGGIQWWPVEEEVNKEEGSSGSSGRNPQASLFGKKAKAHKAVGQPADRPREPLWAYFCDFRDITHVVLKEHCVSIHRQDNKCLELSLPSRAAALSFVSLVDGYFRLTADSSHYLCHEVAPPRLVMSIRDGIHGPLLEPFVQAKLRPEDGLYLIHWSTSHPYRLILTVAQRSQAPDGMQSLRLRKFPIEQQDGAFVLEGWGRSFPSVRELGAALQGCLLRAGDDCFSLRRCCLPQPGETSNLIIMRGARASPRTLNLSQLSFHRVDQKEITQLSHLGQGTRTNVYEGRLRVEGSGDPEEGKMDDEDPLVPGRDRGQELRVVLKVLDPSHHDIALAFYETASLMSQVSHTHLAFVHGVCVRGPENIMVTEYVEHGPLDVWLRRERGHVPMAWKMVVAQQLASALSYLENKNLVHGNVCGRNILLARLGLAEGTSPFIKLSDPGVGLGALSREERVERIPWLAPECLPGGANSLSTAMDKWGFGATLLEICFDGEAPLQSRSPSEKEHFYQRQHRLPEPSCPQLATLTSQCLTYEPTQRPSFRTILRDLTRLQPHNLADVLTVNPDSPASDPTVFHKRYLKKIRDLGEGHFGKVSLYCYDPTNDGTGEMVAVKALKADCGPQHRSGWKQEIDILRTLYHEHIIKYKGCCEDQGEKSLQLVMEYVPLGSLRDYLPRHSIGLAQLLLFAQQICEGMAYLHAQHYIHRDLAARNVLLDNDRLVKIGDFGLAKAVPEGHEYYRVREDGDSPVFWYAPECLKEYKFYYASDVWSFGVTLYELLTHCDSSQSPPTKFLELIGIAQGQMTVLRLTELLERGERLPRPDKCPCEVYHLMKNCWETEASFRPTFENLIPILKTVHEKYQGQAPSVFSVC
JAK2, sequence (O60674 whole entry): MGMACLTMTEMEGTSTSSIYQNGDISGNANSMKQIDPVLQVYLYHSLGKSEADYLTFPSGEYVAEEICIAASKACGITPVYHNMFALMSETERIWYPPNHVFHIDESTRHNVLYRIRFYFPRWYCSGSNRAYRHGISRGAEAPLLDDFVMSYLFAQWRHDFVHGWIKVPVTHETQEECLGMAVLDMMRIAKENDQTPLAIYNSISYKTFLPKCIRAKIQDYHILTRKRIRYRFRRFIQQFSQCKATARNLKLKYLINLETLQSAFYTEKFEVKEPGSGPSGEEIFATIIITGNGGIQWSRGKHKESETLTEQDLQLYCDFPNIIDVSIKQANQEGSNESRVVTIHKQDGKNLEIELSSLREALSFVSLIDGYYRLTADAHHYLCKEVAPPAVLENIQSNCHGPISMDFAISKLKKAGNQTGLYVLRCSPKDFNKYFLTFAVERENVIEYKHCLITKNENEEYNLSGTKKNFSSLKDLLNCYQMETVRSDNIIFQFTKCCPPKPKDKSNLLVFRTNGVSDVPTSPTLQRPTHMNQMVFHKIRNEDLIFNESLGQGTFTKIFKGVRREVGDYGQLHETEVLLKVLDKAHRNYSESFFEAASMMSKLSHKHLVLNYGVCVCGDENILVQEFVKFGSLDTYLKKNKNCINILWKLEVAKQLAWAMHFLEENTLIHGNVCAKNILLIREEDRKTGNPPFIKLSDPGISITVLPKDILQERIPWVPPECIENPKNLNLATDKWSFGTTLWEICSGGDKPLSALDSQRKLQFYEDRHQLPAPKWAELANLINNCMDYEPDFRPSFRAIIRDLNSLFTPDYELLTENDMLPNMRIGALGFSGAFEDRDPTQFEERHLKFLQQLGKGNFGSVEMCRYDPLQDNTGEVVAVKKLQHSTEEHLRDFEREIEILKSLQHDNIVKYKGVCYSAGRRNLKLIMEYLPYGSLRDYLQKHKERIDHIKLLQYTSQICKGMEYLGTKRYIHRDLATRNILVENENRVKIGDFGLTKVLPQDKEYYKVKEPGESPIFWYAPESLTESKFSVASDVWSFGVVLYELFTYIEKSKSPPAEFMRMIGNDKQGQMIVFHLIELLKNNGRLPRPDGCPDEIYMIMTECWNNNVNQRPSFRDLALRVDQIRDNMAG
Method for JAK1: (§1) A panel of four LanthaScreen JAK biochemical assays (JAK1, 2, 3 and Tyk2) were carried in a common kinase reaction buffer (50 mM HEPES, pH 7.5, 0.01% Brij-35, 10 mM MgCl2, and 1 mM EGTA). Recombinant GST-tagged JAK enzymes and a GFP-tagged STAT1 peptide substrate were obtained from Life Technologies.
(§2) Serially diluted compounds were pre-incubated with each of the four JAK enzymes and the substrate in white 384-well microplates (Corning) at ambient temperature for 1 h. ATP was subsequently added to initiate the kinase reactions in 10 μl total volume, with 1% DMSO. […] The plates were allowed to incubate at ambient temperature for 1 h before being read on the EnVision reader (Perkin Elmer).
(§3) For dose-response analysis, percent inhibition data were plotted vs. compound concentrations, and IC50 values were determined from a 4-parameter robust fit model with the Prism software (GraphPad Software). Results were expressed as pIC50 (negative logarithm of IC50) and subsequently converted to pKi (negative logarithm of dissociation constant, Ki) using the Cheng-Prusoff equation.
Method for JAK2: as §1, §2, §3
Method for JAK3: as §1, §2, §3
Method for Tyk2: as §1, §2, §3

`COc1cc(Nc2cc(CO)[nH]n2)nc(N(C)[C@@H]2C[C@H]3CC[C@@H](C2)N3S(=O)(=O)N2CC(C#N)C2)n1` [Example 1, 1-(((1R,3s,5S)-3-((4-((5-(Hydroxymethyl)-1H-pyrazol-3-yl)amino)-6-methoxypyrimidin-2-yl)(methyl)amino)-8-azabicyclo[3.2.1]octan-8-yl)sulfonyl)azetidine-3-carbonitrile]: the “HT-29 (pIC50)” value in data set [1] was “B (B represents a pIC50 value between 6.7 and 7.5 (IC50 between 200 nM and 32 nM))”. Further, the “oral bioavailability (F %)” value in data set [2] (jugular vein) is reported as “less than 5%”. Further, the “absorption at the portal vein (Fa%)” value in data set [2] is “less than 25%”. The “decrease in DAI score as compared with vehicle treated animals” value (“decrease in DAI score” below) in data set [3] is reported as “did not exhibit a statistically significant decrease”. Also, the “JAK 1 (pKi)” value at JAK1 is “A (A represents a pKi value ≥10 (Ki≤0.1 nM))”. Further, the “JAK 2 (pKi)” value on JAK2 is reported as “A (A represents a pKi value ≥10 (Ki≤0.1 nM))”. Besides, the “JAK 3 (pKi)” value on JAK3 is “C (C represents a pKi value between 8 and 9 (Ki between 10 nM and 1 nM))”. For the same compound, the “Tyk 2 (pKi)” value at Tyk2 is “B (B represents a pKi value between 9 and 10 (Ki between 1 nM and 0.1 nM))”.
As for `COc1cc(Nc2cc(CO)[nH]n2)nc(N(C)[C@@H]2C[C@H]3CCC[C@@H](C2)N3S(=O)(=O)N2CC(C#N)C2)n1` [Example 2, 1-(((1R,3s,5S)-3-((4-((5-(Hydroxymethyl)-1H-pyrazol-3-yl)amino)-6-methoxypyrimidin-2-yl)(methyl)amino)-9-azabicyclo[3.3.1]nonan-9-yl)sulfonyl)azetidine-3-carbonitrile], in data set [2], the “absorption at the portal vein (Fa%)” value is “less than 25%”. In [4], the “ratio of exposure in the colon to exposure in plasma” value is given as “greater than 250”. Further, the “decrease in DAI score” value in data set [3] is reported as “demonstrated activity; also recorded: statistically significant decrease”. Also, in data set [5], the effect of immunosuppression result is reported as “minimal effect of immunosuppression”; the “treatment effect on B and T cell populations” value is “No treatment effect”. Further, the “duration of sustained dermal levels” value in data set [6] (Gottingen, minipig) is “at least 7 days”. In data set [6] (male, Balb/c, mouse), the “duration of sustained dermal levels” value was “at least 2 days”. Also, the “inhibition of TPA-induced increase in ear thickness” value in [7] (topical 30-3000 μg per ear) is “dose- and concentration-dependent effect; also recorded: dose- and concentration-dependent inhibition”. In addition, in data set [7] (topical, 1000 μg dose), the “maximum statistically significant inhibition of TPA-induced increase in ear thickness” value amounted to 41%.
For the compound `COCCS(=O)(=O)N1[C@@H]2CCC[C@H]1C[C@H](N(C)c1nc(Nc3cc(CO)[nH]n3)cc(OC)n1)C2` [Example 4, (3-((6-methoxy-2-(((1R,3s,5S)-9-((2-methoxyethyl)sulfonyl)-9-azabicyclo[3.3.1]nonan-3-yl)(methyl)amino)pyrimidin-4-yl)amino)-1H-pyrazol-5-yl)methanol], the “absorption at the portal vein (Fa%)” value in data set [2] is “greater than 40%”. Besides, the “decrease in DAI score” value in data set [3] is reported as “statistically significant decrease”.
Take `C[C@@H]1CCN(C(=O)CC#N)C[C@@H]1N(C)c1ncnc2[nH]ccc12` [tofacitinib, reference compound]: the “treatment effect on B and T cell populations” value in data set [5] is reported as “No treatment effect”.
